Experimental data reported in patent US20110172163A1, “Novel Protease Inhibitors” (QUEENSLAND UNIVERSITY OF TECHNOLOGY, priority 2008, published 2011).
Values joined by “and” are separate entries in the source; they are usually repeats but may differ in a detail not shown here. Equal entries are not always repeated. Where two headings read alike, the source gives them in different places. Blank lines part the entries; values can stand above or below the molecule they belong to. Bridge positions count the residues as written; N and C are the ends. Peptide text beside a SMILES is read from it.

How the values were obtained:
[1] = target: T1, KLK4 (Homo sapiens, UniProt Q9Y5K2); test: Protein proteolysis: fibrinogen digestion by KLK4 (SDS-PAGE); assay type: biochemical; set-up: pro-region of PSA (KLK3), replacing the native KLK4 pro-region (only if the E. coli preparation was used) (N, cleaved yes); made in house; settings: inhibitor at 2 μM
Method: (§1) Fibrinogen was solubilised in assay buffer to a final concentration of 1 mg/ml and digested with KLK4 (+/−inhibitor) over a period of 90 minutes at 37° C. Typically assays consisted of 5 μM protein substrate and 2.5 nM KLK4 protein or 1 nM trypsin made up to a final volume of 8 μl with assay buffer. Proteolysis was initiated by addition of KLK4 and terminated by addition of SDS PAGE sample buffer and heat denaturation at 100° C. for 5 minutes. Hydrolysis products were resolved on 10% SDS PAGE gels and compared with incubations terminated immediately after initiation (time 0), and substrate proteins incubated in assay buffer for 90 minutes in the absence of KLK4 or 4-16 mins with trypsin.

[2] = target: T2, trypsin (Bos taurus, UniProt P00760); test: Protein proteolysis: fibrinogen digestion by trypsin (SDS-PAGE); assay type: biochemical, bovine; settings: SDS-PAGE
T2 construct: purchased Sigma Chemicals
Method: as §1

[3] = target: Thrombin; settings: cited from earlier work
[4] = Stability of SFTI variants in contact with prostate cancer cells in vitro; assay type: in vitro ADME; settings: prostate cancer cell lines in serum containing medium
Method: Cell monolayers of LNCaP, 22Rv1 and PC3 cells were established in RPMI 1640 medium containing 10% fetal calf serum. Each cell line was treated +/−1 μM SFTI-FCQR contained in 4.0 mL RPMI media (as above) with a vehicle control to account for inhibition by intrinsic media factors. 25 μL samples of media were taken at 0, 24, 48, 72, 96 and 120 hrs timepoints. Media samples were boiled at 97° C. for 15 min, centrifuged at 14,000 rpm for 5 min to remove cellular debris and precipitated protein. Residual SFTI-FCQR inhibitory activity in the medium was determined against recombinant KLK4 using FVQR-pNA as a peptide substrate as above using 15ng KLK4 and 30 nmol FVQR-pNA with 2.5 μL and […] of media+/−SFTI-FCQR added from each treatment.

[5] = target: T3, human matriptase (Homo sapiens, UniProt Q9Y5Y6); test: Inhibitor kinetics: matriptase amidolytic activity; assay type: biochemical; settings: substrate Bz-FVR-pNA (0.2 mM); read-out: IC50
T3 construct: purchased R&D Systems
T3 sequence (Q9Y5Y6 615-855 limits assumed): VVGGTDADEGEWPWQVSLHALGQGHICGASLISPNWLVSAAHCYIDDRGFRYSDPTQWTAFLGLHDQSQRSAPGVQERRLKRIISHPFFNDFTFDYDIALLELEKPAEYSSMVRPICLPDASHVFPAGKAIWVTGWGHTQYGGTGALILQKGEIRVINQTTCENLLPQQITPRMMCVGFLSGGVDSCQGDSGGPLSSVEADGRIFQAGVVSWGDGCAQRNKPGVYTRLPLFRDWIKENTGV
Method: (§2) All enzymes and substrates were obtained from Sigma Chemicals if not otherwise specified. […] The release of pNa moiety was monitored as described above for 7 minutes with each point being the average of three independent triplicate reactions. IC50 was determined using the Prism 5 software suite (GraphPad software Inc.).

[6] = test system: protease (Streptomyces griseus type XIV); test: Inhibitor kinetics: Streptomyces griseus type XIV protease; assay type: biochemical; settings: substrate L-pNA
Method: as §2

[7] = target: T1, KLK4; test: Inhibitor kinetics: KLK4 amidolytic activity with peptide-pNA substrates; assay type: biochemical; set-up: pro-region of PSA (KLK3), replacing the native KLK4 pro-region (N, cleaved yes); made in house
Method: (§3) Human recombinant KLK4 was expressed in E. coli using a previously described chimeric KLK4 plasmid construct where the native pro-region was replaced with the pro-region of PSA, enabling autoactivation. Protein was expressed as inclusion bodies which were isolated and solubilised as described previously to yield 90% pure KLK4. Protein refolding was performed by dilution into 100 volumes of refolding buffer I (2 M urea, 0.1M NaCl, 5 mM GSH, 0.5 mM GSSG, 10 mM benzamidine, 50 mM tris HCl pH 8.0, 2 mM CaCl2) over 44 hours before further dilution into 3 volumes refolding buffer II (refolding buffer I with 0.5 M urea 0.5 mM GSH, 0.05 mM GSSG, 2 mM CaCl2) over another 24 hours. Dialysis was performed as previously described (with additional 2 mM CaCl2 to reduce aggregation) before concentration using UNO sphere Q (Biorad) eluting with tris buffered saline (pH 7.5)/2 mM CaCl2. Subsequently, the material was purified to apparent homogeneity (according to coomassie blue stained SDS PAGE) by gel filtration using Sephacryl S-200 (GE Health Care) pre-equilibrated with 50 mM Tris-HCl pH 7.5, 20 mM NaCl and 2 mM CaCl2.
All enzymes and substrates were obtained from Sigma Chemicals if not otherwise specified. Bacterially expressed human KLK4 (37 ng), bovine β-trypsin (20 ng), bovine thrombin (20 ng), bovine α-chymotrypsin (0.5 μg), protease (0.5 μg; Streptomyces griseus type XIV), bovine plasminogen (0.5 μg), and human matriptase (30 ng; R&D Systems) were incubated with various concentrations of inhibitors in 200 μL assay buffer for 10 minutes prior to initiation by the addition of 100 μL of 0.3 mM of peptide-pNA substrates (FVQR-pNA: KLK4; BAPNA: trypsin, (Streptomyces griseus Type XIV Protease and bovine plasma plasminogen); Bz-Phe-Val-Arg-pNA: thrombin and matriptase; Trp-pNA: α-chymotrypsin; Leu-pNA: (Streptomyces griseus Type XIV Protease and bovine plasma plasminogen). The release of pNa moiety was monitored as described above for 7 minutes with each point being the average of three independent triplicate reactions. IC50 was determined using the Prism 5 software suite (GraphPad software Inc.).

[8] = target: T4, bovine α-chymotrypsin (Bos taurus, UniProt P00766); test: Inhibitor kinetics: α-chymotrypsin amidolytic activity; assay type: biochemical; settings: substrate W-pNA (0.2 mM); read-out: IC50
T4 construct: purchased Sigma Chemicals
Method: as §2

[9] = target: T5, bovine β-trypsin (Bos taurus, UniProt P00760); test: Inhibitor kinetics: trypsin amidolytic activity; assay type: biochemical; settings: substrate BAPNA (0.2 mM)
T5 construct: bovine β-trypsin (20 ng); purchased Sigma Chemicals
T5 sequence (P00760 24-246): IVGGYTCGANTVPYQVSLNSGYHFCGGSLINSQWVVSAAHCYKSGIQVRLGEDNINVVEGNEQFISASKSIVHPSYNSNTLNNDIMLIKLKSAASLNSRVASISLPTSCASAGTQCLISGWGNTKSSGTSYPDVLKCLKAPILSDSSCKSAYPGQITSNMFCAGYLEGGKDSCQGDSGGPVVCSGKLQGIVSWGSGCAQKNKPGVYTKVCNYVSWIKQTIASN
Method: as §2

[10] = target: T6, bovine thrombin (Bos taurus, UniProt P00735); test: Inhibitor kinetics: thrombin amidolytic activity; assay type: biochemical; settings: substrate Bz-FVR-pNA (0.2 mM); read-out: IC50
T6 construct: purchased Sigma Chemicals
Method: as §2

[11] = Figure 3 (D)
Method: Table printed on a drawing sheet, Figure 3 (D)
The patent's description of the figure: FIG. 3. Stability of SFTI variants in contact with prostate cancer cells in vitro. Residual SFTI-FCQR was assayed in tissue culture supernatants from prostate cancer cells treated with a single dose of inhibitor at time =0. Stability was assessed against LNCaP (closed circles), 22RV1 (open circles) and PC3 cells (triangles) for (A) SFTI-FCQR, (B) SFTI-FCQR Asn14 and (C) SFTI-FCQR Lys14 as summarized in (D). Data represented as mean±SEM from three independent experiments in triplicates.
First reader's note: Half-life of residual inhibitor activity in culture supernatants of prostate cancer cell lines, summarising panels (A)-(C).

[12] = target: KLK12 (Homo sapiens, UniProt Q9UKR0); test: Protein proteolysis: fibrinogen digestion by KLK12; assay type: biochemical; settings: at a concentration of 10000 nM
[13] = target: T7, iKLK14 (Homo sapiens, UniProt Q9P0G3); test: Inhibitor kinetics: KLK14 amidolytic activity; assay type: biochemical
T7 construct: made in house

[14] = target: KLK14 (Homo sapiens, UniProt Q9P0G3); test: Protein proteolysis: fibrinogen digestion by KLK14; assay type: biochemical; settings: at a concentration of 10000 nM
[15] = substrate: CSCC[C@H](NC(=O)[C@@H](NC(=O)[C@@H](N)Cc1ccccc1)C(C)C)C(=O)N[C@@H](CCCNC(=N)N)C(=O)Nc1ccc([N+](=O)[O-])cc1; test: Kinetic studies of para-nitroanilide substrates with KLK4; assay type: biochemical, human; settings: other: para-Nitroanilide substrate
Method: as §3
(§4) Kinetic Studies Active site titration was carried out according to Beynon et al., replacing α1-proteinase inhibitor with soybean trypsin inhibitor. Enzymatic activity assays were performed with 4.9 nM KLK4 and substrate concentrations in the range of 0-600 μM in 300 μL of assay buffer with hydrolysis monitored over 5 minutes as described for the substrate screen. The data was fitted to the Michaelis-Menten equation by […] analysis using the Prism 5 software suite (GraphPad Software Inc.).

[16] = substrate: CC(C)[C@H](NC(=O)[C@H](Cc1ccccc1)NC(=O)c1ccccc1)C(=O)N[C@@H](CCCNC(=N)N)C(=O)Nc1ccc([N+](=O)[O-])cc1; test: as above; assay type: biochemical, human; settings: other: para-Nitroanilide substrate
Method: as §3, §4

[17] = substrate: CC(=O)N[C@@H](Cc1ccccc1)C(=O)N[C@H](C(=O)N[C@@H](CCCNC(=N)N)C(=O)Nc1ccc([N+](=O)[O-])cc1)C(C)C; test: as above; assay type: biochemical, human; settings: other: para-Nitroanilide substrate
Method: as §3, §4

[18] = substrate FVQR-pNA (0.2 mM), read-out: IC50

T7 sequence (Q9P0G3 41-267): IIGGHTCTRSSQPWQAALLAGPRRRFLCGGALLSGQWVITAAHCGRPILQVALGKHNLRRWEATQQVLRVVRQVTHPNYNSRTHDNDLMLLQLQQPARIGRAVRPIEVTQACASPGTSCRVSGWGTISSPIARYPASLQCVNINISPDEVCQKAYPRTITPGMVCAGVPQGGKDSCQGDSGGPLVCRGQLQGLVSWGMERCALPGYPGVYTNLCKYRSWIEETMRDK
T2 sequence (P00760 18-246 limits assumed): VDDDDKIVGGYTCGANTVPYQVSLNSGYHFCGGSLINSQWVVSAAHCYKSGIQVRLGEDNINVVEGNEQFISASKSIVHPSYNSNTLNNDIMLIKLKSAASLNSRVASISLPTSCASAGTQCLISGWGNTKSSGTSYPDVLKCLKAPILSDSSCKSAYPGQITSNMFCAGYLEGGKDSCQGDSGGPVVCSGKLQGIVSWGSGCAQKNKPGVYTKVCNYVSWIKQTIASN
Chain of KLK14 (Q9P0G3 35-267 limits assumed): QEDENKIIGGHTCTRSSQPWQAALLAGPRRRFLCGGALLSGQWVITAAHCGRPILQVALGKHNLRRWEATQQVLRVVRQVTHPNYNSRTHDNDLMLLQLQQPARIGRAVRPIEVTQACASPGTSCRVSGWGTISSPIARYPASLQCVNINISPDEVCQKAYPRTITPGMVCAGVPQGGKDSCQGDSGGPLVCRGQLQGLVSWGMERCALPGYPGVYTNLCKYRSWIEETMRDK
Chain of KLK12 (Q9UKR0 18-248): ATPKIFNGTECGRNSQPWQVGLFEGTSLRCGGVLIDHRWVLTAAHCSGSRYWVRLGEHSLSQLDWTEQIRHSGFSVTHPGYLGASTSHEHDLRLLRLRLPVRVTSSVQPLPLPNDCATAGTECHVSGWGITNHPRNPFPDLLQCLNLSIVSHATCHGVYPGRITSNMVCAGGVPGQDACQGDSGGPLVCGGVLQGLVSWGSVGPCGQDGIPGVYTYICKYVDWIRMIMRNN

Molecule: Sunflower trypsin inhibitor [SFTI-1, reference compound]
inhibition of fibrinogen proteolysis by KLK4 [1]: no inhibition
concentration that completely inhibits trypsin digestion of fibrinogen [2]: 31.25 nM
Ki ([3]; substrate N-t-Boc-LRR-AMC, Long et al. 2001): 5050 nM
Ki ([3]; substrate Unknown, Luckett et al. 1999): 136 nM

Molecule: CC[C@H](C)[C@@H]1NC(=O)[C@@H]2CCCN2C(=O)[C@@H]2CCCN2C(=O)[C@H]([C@@H](C)CC)NC(=O)[C@H](CO)NC(=O)[C@H](CCCNC(=N)N)NC(=O)[C@H](CCC(N)=O)NC(=O)[C@@H]2CSSC[C@H](NC1=O)C(=O)N[C@@H](Cc1ccccc1)C(=O)N1CCC[C@H]1C(=O)N[C@@H](CCCCN)C(=O)NCC(=O)N[C@@H](Cc1ccccc1)C(=O)N2 [SFTI-FCQR Lys14] (cyclo(GFCQRSIPPICFPK); disulfide 3-11)
half life of inhibition (in words) [4]: curtailed half life
IC50 [5]: > 10000 nM
IC50 [6]: > 10000 nM
IC50 against KLK4 compared with SFTI-FCQR Asn14 ([7]; substrate FVQR-pNA): nearly three orders of magnitude higher
IC50 [7, 18]: 98.9 ± 4.09 nM
IC50 [8]: > 10000 nM
IC50 [9]: Inhibitor degraded
IC50 [10]: > 10000 nM
Half-life [11]: 9 h and 10 h

Molecule: CC[C@H](C)[C@@H]1NC(=O)[C@@H]2CCCN2C(=O)[C@@H]2CCCN2C(=O)[C@H]([C@@H](C)CC)NC(=O)[C@H](CO)NC(=O)[C@H](CCCNC(=N)N)NC(=O)[C@H](CCC(N)=O)NC(=O)[C@@H]2CSSC[C@H](NC1=O)C(=O)N[C@@H](Cc1ccccc1)C(=O)N1CCC[C@H]1C(=O)N[C@@H](CC(N)=O)C(=O)NCC(=O)N[C@@H](Cc1ccccc1)C(=O)N2 [SFTI-FCQR Asn14] (cyclo(GFCQRSIPPICFPN); disulfide 3-11)
half life of inhibition (in words) [4]: in the order of days
IC50 [5]: > 10000 nM
IC50 [6]: > 10000 nM
inhibition of KLK12 digestion of fibrinogen [12]: did not inhibit
IC50 [7]: 0.063 ± 0.002 nM
IC50 [13]: 251 ± 6.65 nM
IC50 [8]: > 10000 nM
IC50 ([9]; read-out: IC50): 2580 ± 508 nM
IC50 [10]: > 10000 nM
inhibition of KLK14 digestion of fibrinogen [14]: did not inhibit
Half-life [11]: 70 h

IC50 [7, 18]: 1140 ± 76 nM
Molecule: CC[C@H](C)[C@@H]1NC(=O)[C@H](C)NC(=O)[C@@H]2CCCN2C(=O)[C@H]([C@@H](C)CC)NC(=O)[C@H](CO)NC(=O)[C@H](CCCNC(=N)N)NC(=O)[C@H](CCC(N)=O)NC(=O)[C@@H]2CSSC[C@H](NC1=O)C(=O)N[C@@H](Cc1ccccc1)C(=O)N1CCC[C@H]1C(=O)N[C@@H](CC(=O)O)C(=O)NCC(=O)N[C@@H](Cc1ccccc1)C(=O)N2 [SFTI-FCQR Ala9] (cyclo(AICFPDGFCQRSIP); disulfide 3-9)

B1: KLK4 (Homo sapiens) (protein)
chain: IINGEDCSPHSQPWQAALVMENELFCSGVLVHPQWVLSAAHCFQNSYTIGLGLHSLEADQEPGSQMVEASLSVRHPEYNRPLLANDLMLIKLDESVSESDTIRSISIASQCPTAGNSCLVSGWGLLANGRMPTVLQCVNVSVVSEEVCSKLYDPLYHPSMFCAGGGHDQKDSCNGDSGGPLICNGYLQGLVSFGKAPCGQVGVPGVYTNLCKFTEWIEKTVQAS
notes: pro-region of PSA (KLK3), replacing the native KLK4 pro-region (only if the E. coli preparation was used) (N, cleaved yes); made in house
Km [15]: 74.7 ± 10.3 µM
Km [16]: 42.5 ± 5.9 µM
kcat [16]: 0.57 ± 0.031 s⁻¹
kcat/Km [16]: 13400 ± 1500 M⁻¹ s⁻¹
Km [17]: 194.9 ± 41.4 µM
kcat [17]: 0.3 ± 0.032 s⁻¹
kcat/Km [17]: 1540 ± 240 M⁻¹ s⁻¹
